Assay: log P by HPLC
Assay type: physicochemical
Settings: EEC directive 79/831 Annex V. A8 by HPLC (gradient method, acetonitrile/0.1% aqueous phosphoric acid)
`Cc1nc2nc(Cl)c(-c3c(F)cccc3F)c(N3CCCC(O)C3)n2n1` (centres unmarked) [compound 314] showed a logP of 2.03.
With `Cc1nc2nc(Cl)c(-c3c(F)cccc3F)c(N3CCC(C)(C)CC3)n2n1` [compound 315] the logP was 3.91.
`CCC1=CCN(c2c(-c3c(F)cccc3F)c(Cl)nc3nc(C)nn23)CC1` [compound 316] gave a logP of 3.84.
`CC1=CCCN(c2c(-c3c(F)cccc3F)c(Cl)nc3nc(C)nn23)C1` [compound 317] showed a logP of 3.39.
For `COC(=O)C1CCN(c2c(-c3c(F)cccc3F)c(Cl)nc3nc(C)nn23)CC1` [compound 318], the logP was 2.69.
Molecule `Cc1nc2nc(Cl)c(-c3c(F)cccc3F)c(N3CCC(Br)CC3)n2n1` [compound 319] has a logP of 3.33.
For `COC(=O)C1CCCCN1c1c(-c2c(F)cccc2F)c(Cl)nc2nc(C)nn12` (centres unmarked) [compound 320], the logP was 3.04.
Molecule `Cc1nc2nc(Cl)c(-c3c(F)cccc3F)c(N3CCC(NC(=O)OC(C)(C)C)CC3)n2n1` [compound 321] has a logP of 3.15.
`Cc1nc2nc(Cl)c(-c3ccccc3F)c(N3CCC(N4CCOCC4)CC3)n2n1` [compound 322] gave a logP of 1.26.
For `CC(=O)NC1CCN(c2c(-c3c(F)cccc3F)c(Cl)nc3nc(C)nn23)CC1` [compound 323], the logP was 1.78.
Molecule `Cc1nc2nc(Cl)c(-c3c(F)cccc3F)c(N3CCN(C)CC3)n2n1` [compound 324] has a logP of 1.12.
With `Cc1cccc(Nc2c(-c3c(F)cccc3F)c(Cl)nc3nc(C)nn23)c1` [compound 326] the logP was 2.89.
`Cc1nc2nc(Cl)c(-c3c(F)cccc3F)c(N3CCc4ccccc4C3)n2n1` [compound 327] gave a logP of 3.22.
`Cc1nc2nc(Cl)c(-c3c(F)cccc3F)c(NCC(C)C)n2n1` [compound 328] showed a logP of 2.85.
Work on `Cc1nc2nc(Cl)c(-c3c(F)cccc3F)c(NCC(C)(C)C)n2n1` [compound 329] yielded a logP of 3.27.
With `Cc1nc2nc(Cl)c(-c3c(F)cccc3F)c(NC(C)CC(C)C)n2n1` (centres unmarked) [compound 330] the logP was 3.55.
In the case of `C#CCN(C)c1c(-c2c(F)cccc2F)c(Cl)nc2nc(C)nn12` [compound 331], the logP is reported as 2.54.
In the case of `Cc1nc2nc(Cl)c(-c3c(F)cccc3F)c(N(C)CC3OCCO3)n2n1` [compound 332], the logP is reported as 2.43.
Molecule `C=CCN(C)c1c(-c2c(F)cccc2F)c(Cl)nc2nc(C)nn12` [compound 333] has a logP of 2.95.
For `COC(CN(C)c1c(-c2c(F)cccc2F)c(Cl)nc2nc(C)nn12)OC` [compound 334], the logP was 2.55.
Work on `Cc1nc2nc(Cl)c(-c3c(F)cccc3F)c(N(C)CC(C)C)n2n1` [compound 335] yielded a logP of 3.37.
With `COCCN(C)c1c(-c2c(F)cccc2F)c(Cl)nc2nc(C)nn12` [compound 336] the logP was 2.45.
For `C=C(C)CN(C)c1c(-c2c(F)cccc2F)c(Cl)nc2nc(C)nn12` [compound 337], the logP was 3.3.
Work on `CCCCN(C)c1c(-c2c(F)cccc2F)c(Cl)nc2nc(C)nn12` [compound 338] yielded a logP of 3.46.
Molecule `C=C(C)CN(CC)c1c(-c2c(F)cccc2F)c(Cl)nc2nc(C)nn12` [compound 339] has a logP of 3.65.
For `CCN(Cc1ccco1)c1c(-c2c(F)cccc2F)c(Cl)nc2nc(C)nn12` [compound 340], the logP was 3.28.
`CCN(CC1CCCO1)c1c(-c2c(F)cccc2F)c(Cl)nc2nc(C)nn12` (centres unmarked) [compound 341] showed a logP of 3.
Molecule `CCN(CCOC)c1c(-c2c(F)cccc2F)c(Cl)nc2nc(C)nn12` [compound 342] has a logP of 2.74.
`CCOC(=O)CN(CC)c1c(-c2c(F)cccc2F)c(Cl)nc2nc(C)nn12` [compound 343] showed a logP of 2.85.
`CCCCN(CC)c1c(-c2c(F)cccc2F)c(Cl)nc2nc(C)nn12` [compound 344] showed a logP of 3.82.
For `CCCN(CC1CC1)c1c(-c2c(F)cccc2F)c(Cl)nc2nc(C)nn12` [compound 345], the logP was 3.83.
With `CCCN(CC1CCCCO1)c1c(-c2c(F)cccc2F)c(Cl)nc2nc(C)nn12` (centres unmarked) [compound 346] the logP was 3.95.
With `CCCN(CC1CCCO1)c1c(-c2c(F)cccc2F)c(Cl)nc2nc(C)nn12` (centres unmarked) [compound 347] the logP was 3.39.
For `CCCN(CCOC)c1c(-c2c(F)cccc2F)c(Cl)nc2nc(C)nn12` [compound 348], the logP was 3.12.
For `Cc1nc2nc(Cl)c(-c3ccc(F)cc3F)c(NC3CCCC(C(F)(F)F)C3)n2n1` (centres unmarked) [compound 349], the logP was 3.52.
Molecule `Cc1nc2nc(Cl)c(-c3ccc(F)cc3F)c(N(C)CCN(C)C)n2n1` [compound 350] has a logP of 1.23.
In the case of `C#CCN(C)c1c(-c2ccc(F)cc2F)c(Cl)nc2nc(C)nn12` [compound 351], the logP is reported as 2.67.
`COCCN(C)c1c(-c2ccc(F)cc2F)c(Cl)nc2nc(C)nn12` [compound 352] showed a logP of 2.58.
With `CCN(CCN(C)C)c1c(-c2ccc(F)cc2F)c(Cl)nc2nc(C)nn12` [compound 353] the logP was 1.37.
For `CCN(Cc1ccco1)c1c(-c2ccc(F)cc2F)c(Cl)nc2nc(C)nn12` [compound 354], the logP was 3.39.
In the case of `CCOC(=O)CN(CC)c1c(-c2ccc(F)cc2F)c(Cl)nc2nc(C)nn12` [compound 355], the logP is reported as 3.04.
`CCCN(CC1CC1)c1c(-c2ccc(F)cc2F)c(Cl)nc2nc(C)nn12` [compound 356] gave a logP of 3.91.
Work on `CCCN(CC1CCCO1)c1c(-c2ccc(F)cc2F)c(Cl)nc2nc(C)nn12` (centres unmarked) [compound 357] yielded a logP of 3.6.
Molecule `CC(Nc1c(-c2ccc(F)cc2F)c(Cl)nc2nc(C(F)(F)F)nn12)C(F)(F)F` (centres unmarked) [compound 358] has a logP of 3.89.
`Cc1nc2nc(Cl)c(-c3ccccc3F)c(NOCC(C)C)n2n1` [compound 361] showed a logP of 2.98.
In the case of `CCONc1c(-c2ccccc2F)c(Cl)nc2nc(C)nn12` [compound 362], the logP is reported as 2.28.
For `Cc1nc2nc(Cl)c(-c3ccccc3F)c(NOCc3ccccc3)n2n1` [compound 363], the logP was 2.93.
With `Cc1nc2nc(Cl)c(-c3ccccc3F)c(NOCc3cc(Cl)cc(Cl)c3)n2n1` [compound 364] the logP was 3.76.
In the case of `Cc1nc2nc(Cl)c(-c3ccccc3F)c(NOCc3ccc(C(F)(F)F)cc3)n2n1` [compound 365], the logP is reported as 3.43.
Molecule `Cc1nc2nc(Cl)c(-c3ccccc3F)c(NOCc3ccccc3Cl)n2n1` [compound 366] has a logP of 3.21.
In the case of `Cc1nc2nc(Cl)c(-c3ccccc3F)c(NOCc3cccc(Cl)c3)n2n1` [compound 367], the logP is reported as 3.28.
`Cc1nc2nc(Cl)c(-c3ccccc3F)c(NOCc3ccc(Cl)cc3)n2n1` [compound 368] gave a logP of 3.3.
For `Cc1nc2nc(Cl)c(-c3ccccc3F)c(NOCc3ccc(F)cc3)n2n1` [compound 369], the logP was 2.98.
For `CCC(C)ONc1c(-c2ccccc2F)c(Cl)nc2nc(C)nn12` (centres unmarked) [compound 370], the logP was 2.87.
Work on `Cc1nc2nc(Cl)c(-c3ccccc3F)c(NOCc3cccc(C(F)(F)F)c3)n2n1` [compound 371] yielded a logP of 3.38.
Work on `CCCCONc1c(-c2ccccc2F)c(Cl)nc2nc(C)nn12` [compound 372] yielded a logP of 2.98.
With `C=CCONc1c(-c2ccccc2F)c(Cl)nc2nc(C)nn12` [compound 373] the logP was 2.42.
With `Cc1nc2nc(Cl)c(-c3ccccc3F)c(NOC(C)(C)C)n2n1` [compound 374] the logP was 2.75.
`Cc1nc2nc(Cl)c(-c3ccccc3F)c(NOC3CCCCO3)n2n1` (centres unmarked) [compound 375] gave a logP of 2.59.
Molecule `CONc1c(-c2ccccc2F)c(Cl)nc2nc(C)nn12` [compound 376] has a logP of 2.03.
In the case of `CON(C)c1c(-c2ccccc2F)c(Cl)nc2nc(C)nn12` [compound 377], the logP is reported as 2.5.
For `Cc1nc2nc(Cl)c(-c3ccccc3F)c(NOC(C)C)n2n1` [compound 378], the logP was 2.54.
Work on `Cc1nc2nc(Cl)c(-c3c(F)cc(F)cc3F)c(NC(C)C3CC3)n2n1` (centres unmarked) [compound 379] yielded a logP of 3.09.
With `CCN(CC(F)(F)F)c1c(-c2c(F)cc(F)cc2F)c(Cl)nc2nc(C)nn12` [compound 380] the logP was 3.42.
Molecule `Cc1nc2nc(Cl)c(-c3ccccc3F)c(N(C)C)n2n1` [compound 381] has a logP of 2.34.
`Cc1nc2nc(Cl)c(-c3ccccc3F)c(N3CC(C)OC(C)C3)n2n1` (centres unmarked) [compound 382] gave a logP of 2.8.
With `CCNc1c(-c2ccccc2F)c(Cl)nc2nc(C)nn12` [compound 383] the logP was 2.3.
In the case of `Cc1nc2nc(Cl)c(-c3ccccc3F)c(N3CCCCC3)n2n1` [compound 384], the logP is reported as 3.19.
Work on `Cc1nc2nc(Cl)c(-c3ccccc3F)c(NC3CCCC3)n2n1` [compound 385] yielded a logP of 3.11.
`Cc1nc2nc(Cl)c(-c3ccccc3F)c(NC(C)C)n2n1` [compound 386] gave a logP of 2.63.
In the case of `CCN(CC)c1c(-c2ccccc2F)c(Cl)nc2nc(C)nn12` [compound 387], the logP is reported as 2.95.
Molecule `Cc1nc2nc(Cl)c(-c3ccccc3F)c(N3CCOCC3)n2n1` [compound 388] has a logP of 2.16.
For `CNc1c(-c2ccccc2F)c(Cl)nc2nc(C)nn12` [compound 389], the logP was 2.02.
`Cc1nc2nc(Cl)c(-c3ccccc3F)c(NC3CC3)n2n1` [compound 390] gave a logP of 2.41.
`Cc1nc2nc(Cl)c(-c3ccccc3F)c(NCC(F)(F)F)n2n1` [compound 391] gave a logP of 2.53.
Molecule `Cc1nc2nc(Cl)c(-c3ccccc3F)c(N3CCC(C(F)(F)F)CC3)n2n1` [compound 392] has a logP of 3.37.
`Cc1nc2nc(Cl)c(-c3ccccc3F)c(NCC3CC3)n2n1` [compound 393] showed a logP of 2.72.
In the case of `C=C(C)CNc1c(-c2ccccc2F)c(Cl)nc2nc(C)nn12` [compound 394], the logP is reported as 2.68.
For `Cc1nc2nc(Cl)c(-c3ccccc3F)c(NCCC(F)(F)F)n2n1` [compound 395], the logP was 2.7.
In the case of `Cc1nc2nc(Cl)c(-c3ccccc3F)c(NC(C)C3CCCCC3)n2n1` (centres unmarked) [compound 396], the logP is reported as 4.16.
With `Cc1nc2nc(Cl)c(-c3ccccc3F)c(NC3CCCCC3)n2n1` [compound 397] the logP was 3.43.
`Cc1nc2nc(Cl)c(-c3ccccc3F)c(NC3CCCCC3C(F)(F)F)n2n1` (centres unmarked) [compound 398] gave a logP of 3.49.
In the case of `Cc1nc2nc(Cl)c(-c3ccccc3F)c(NC3CC(C(F)(F)F)CC(C(F)(F)F)C3)n2n1` (centres unmarked) [compound 399], the logP is reported as 3.73.
In the case of `Cc1nc2nc(Cl)c(-c3ccccc3F)c(NC3CCC(C(F)(F)F)CC3)n2n1` (centres unmarked) [compound 400], the logP is reported as 3.48.
In the case of `Cc1nc2nc(Cl)c(-c3ccccc3Cl)c(N3CCCCC3C)n2n1` (centres unmarked) [compound 401], the logP is reported as 3.91.
With `Cc1nc2nc(Cl)c(-c3ccccc3Cl)c(N3CCC(F)CC3)n2n1` [compound 402] the logP was 3.05.

Source: patent US7186831B2, “5-halo-2-alkyl[1,2,4]triazolo[1,5-a]pyrimidin-7-amines” (priority 2001, dated 2007)
